In patent US20240209005A1, “BICYCLIC HETEROARYL BORONATE DERIVATIVES AS ECTONUCLEOTIDE PYROPHOSPHATASE PHOSPHODIESTERASE 1 INHIBITORS” (RIBOSCIENCE LLC, priority 2021, published 2024):
Counter-ions that a name gives are not always drawn.

Target: T1, ENPP1 (Homo sapiens, UniProt P22413)
T1 sequence (P22413 1-925): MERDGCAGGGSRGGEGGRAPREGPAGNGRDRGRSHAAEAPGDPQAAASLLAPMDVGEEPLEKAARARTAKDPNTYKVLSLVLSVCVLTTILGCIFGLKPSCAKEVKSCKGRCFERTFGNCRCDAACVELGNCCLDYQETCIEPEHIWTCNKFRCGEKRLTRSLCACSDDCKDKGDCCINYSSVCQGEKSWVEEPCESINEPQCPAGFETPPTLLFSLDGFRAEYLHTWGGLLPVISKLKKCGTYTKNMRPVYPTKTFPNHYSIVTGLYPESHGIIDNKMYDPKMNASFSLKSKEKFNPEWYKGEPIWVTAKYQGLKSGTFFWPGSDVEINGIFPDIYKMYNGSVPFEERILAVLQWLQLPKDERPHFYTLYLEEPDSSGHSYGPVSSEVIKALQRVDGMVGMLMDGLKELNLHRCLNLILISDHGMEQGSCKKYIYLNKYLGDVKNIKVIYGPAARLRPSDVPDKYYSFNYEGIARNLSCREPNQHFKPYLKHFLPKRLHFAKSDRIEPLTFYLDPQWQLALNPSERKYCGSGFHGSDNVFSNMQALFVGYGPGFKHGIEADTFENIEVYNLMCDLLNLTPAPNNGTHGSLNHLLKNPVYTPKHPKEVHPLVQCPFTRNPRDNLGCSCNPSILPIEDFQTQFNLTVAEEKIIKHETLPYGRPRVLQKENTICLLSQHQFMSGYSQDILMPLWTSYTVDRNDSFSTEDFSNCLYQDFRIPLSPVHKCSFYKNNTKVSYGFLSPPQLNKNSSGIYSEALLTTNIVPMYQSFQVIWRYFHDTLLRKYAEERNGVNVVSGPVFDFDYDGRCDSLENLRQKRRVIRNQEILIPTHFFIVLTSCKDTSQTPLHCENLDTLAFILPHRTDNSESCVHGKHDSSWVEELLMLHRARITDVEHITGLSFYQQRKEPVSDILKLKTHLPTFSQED
Test: Measurement of pNP-TMP hydrolysis by ENPP1
Format: biochemical
Conditions: purified ENPP1, pNP-TMP substrate 500 μM, KM 232 μM; Ki calculated from IC50 by Cheng-Prusoff
Procedure: p-Nitrophenyl thymidine 5′-monophosphate (pNP-TMP) is a synthesized substrate for ENPP1. The ENPP1 enzyme activity assay with pNP-TMP substrate was conducted as follows:
Incubation of ENPP1 with compounds was set at 25° C. for 10 min. […] For each compound dilution, wells with assay buffer (50 mM Tris-HCl, pH8.8, 250 mM NaCl, 0.1 mg/ml BSA, 1% DMSO) only but no ENPP1 were included as controls for subtraction of test compound derived absorbance at 405 nm.
Absorbance at 405 nm was recorded immediately in kinetic mode by PerkinElmer 2300 Enspire multimode plate reader.
For each inhibitor, the specific ENPP1 activity was calculated using the following equation: ENPP1 activity (pmol/min/g)=Adjusted Vmax (OD405 nm/min) X conversion factor (pmol/OD405 nm)/amount of enzyme (g)
Adjusted Vmax=V0×(Km+(S))/(S).
V0=(OD405 nm with ENPP1−OD405 nm ENPP1 blank)/minutes. OD405 nm was plotted, with blank subtracted, against time (minutes), the initial linear rate is V0. […]
The slope is the conversion factor. The percent ENPP1 activity for each sample was calculated using the following equation:
% enzyme activity=sample enzyme activity/MAX Activity×100%.
To determine the IC50 for each compound, compound concentration values and percent enzyme activity values were inserted into GraphPad Prism (GraphPad Prism version 7.0 for Windows, GraphPad Software, La Jolla California USA, www.graphpad.com), and Prism's Transform analysis was used to convert the x-axis values (compound concentration) to logarithms. A sigmoidal variable slope nonlinear regression analysis was performed using the following equation: Y=Bottom+(Top−Bottom)/(1+10^((LogIC50−X)*HillSlope)).

Ki	Structure (SMILES)
< 1 µM	Cn1ncc2nc(C=Cc3ccccc3)nc(NCc3ccc(B(O)O)cc3)c21 (mixture of isomers) [compound 34, 4-[([1-methyl-5-[2-phenylethenyl]pyrazolo[4,3-d]pyrimidin-7-yl]amino)-methyl]phenylboronic acid]
< 1 µM	CC(=O)Nc1cn(C)c2c(NCc3ccc(B(O)O)cc3)ncnc12 [Cpd. 2, 4-[([7-acetamido-5-methylpyrrolo[3,2-d]pyrimidin-4-yl]-amino)methyl]phenylboronic acid]
< 10 µM	OB(O)c1ccc(CNc2ncnc3cc[nH]c23)cc1 [Cpd. 4, 4-([5H-pyrrolo[3,2-d]pyrimidin-4-ylamino]methyl)phenyl-boronic acid]
< 0.1 µM	CC(=O)Nc1csc2c(NCc3ccc(B(O)O)cc3)ncnc12 [Cpd. 8, 4-[([7-acetamidothieno[3,2-d]pyrimidin-4-yl]amino)-methyl]phenylboronic acid]
> 10 µM	CNC(=O)c1n[nH]c2c(NCc3ccc(B(O)O)cc3)ncnc12 [Cpd. 22]
< 0.1 µM	Cn1ccc2ncnc(NCc3ccc(B(O)O)cc3)c21 [compound 1, 4-[([5-methylpyrrolo[3,2-d]pyrimidin-4-yl]amino)-methyl]phenylboronic acid; formic acid]
< 1 µM	CCC(=O)Nc1csc2c(NCc3ccc(B(O)O)cc3)ncnc12 [compound 3, 4-[([7-propanamidothieno[3,2-d]pyrimidin-4-yl]amino)-methyl]phenylboronic acid]
< 1 µM	Cc1nc(NCc2ccc(B(O)O)cc2)c2c(cnn2C)n1 [compound 5, 4-[([1,5-dimethylpyrazolo[4,3-d]pyrimidin-7-yl]amino)-methyl]phenylboronic acid]
< 0.1 µM	CC(C)c1nc(NCc2ccc(B(O)O)cc2)c2c(cnn2C)n1 [compound 6, 4-[([5-isopropyl-1-methylpyrazolo[4,3-d]pyrimidin-7-yl]-amino)methyl]phenylboronic acid]
< 1 µM	CC(=O)Nc1c[nH]c2c(NCc3ccc(B(O)O)cc3)ncnc12 [compound 7, 4-[([7-acetamido-5H-pyrrolo[3,2-d]pyrimidin-4-yl]amino)-methyl]phenylboronic acid]
< 0.1 µM	OB(O)c1ccc(CNc2ncnc3cn[nH]c23)cc1 [compound 9, 4-([1H-pyrazolo[4,3-d]pyrimidin-7-ylamino]methyl)-phenylboronic acid]
< 0.1 µM	CCNC(=O)c1c[nH]c2c(NCc3ccc(B(O)O)cc3)ncnc12 [compound 10, 4-([[7-(ethylcarbamoyl)-5H-pyrrolo[3,2-d]pyrimidin-4-yl]-amino]methyl)phenylboronic acid; formic acid]
< 1 µM	CN(C)C(=O)c1c[nH]c2c(NCc3ccc(B(O)O)cc3)ncnc12 [compound 11, 4-([[7-(dimethylcarbamoyl)-5H-pyrrolo[3,2-d]pyrimidin-4-yl]-amino]methyl)phenylboronic acid]
< 0.1 µM	CNC(=O)c1csc2c(NCc3ccc(B(O)O)cc3)ncnc12 [compound 12, 4-([[7-(methylcarbamoyl)thieno[3,2-d]pyrimidin-4-yl]-amino]methyl)phenylboronic acid]
< 10 µM	O=C(NCCO)c1c[nH]c2c(NCc3ccc(B(O)O)cc3)ncnc12 [compound 13, 4-[([7-[(2-hydroxyethyl)carbamoyl]-5H-pyrrolo[3,2-d]-pyrimidin-4-yl]amino)methyl]phenylboronic acid]
< 1 µM	CC(C)NC(=O)c1c[nH]c2c(NCc3ccc(B(O)O)cc3)ncnc12 [compound 14, 4-([[7-(isopropylcarbamoyl)-5H-pyrrolo[3,2-d]pyrimidin-4-yl]amino]methyl)phenylboronic acid]

Ki	Structure (SMILES)
< 0.1 µM	N#Cc1c[nH]c2c(NCc3ccc(B(O)O)cc3)ncnc12 [compound 15, 4-[([7-cyano-5H-pyrrolo[3,2-d]pyrimidin-4-yl]amino)methyl]phenylboronic acid]
< 1 µM	NC(=O)c1c[nH]c2c(NCc3ccc(B(O)O)cc3)ncnc12 [compound 16, 4-[([7-carbamoyl-5H-pyrrolo[3,2-d]pyrimidin-4-yl]amino)-methyl]phenylboronic acid]
< 0.1 µM	CNC(=O)c1c[nH]c2c(NCc3ccc(B(O)O)cc3)ncnc12 [compound 17, 4-([[7-(methylcarbamoyl)-5H-pyrrolo[3,2-d]pyrimidin-4-yl]amino]methyl)phenylboronic acid; formic acid]
< 0.1 µM	Cn1ncc2ncnc(NCc3ccc(B(O)O)cc3)c21 [compound 18, 4-[([1-methylpyrazolo[4,3-d]pyrimidin-7-yl]amino)methyl]-phenylboronic acid]
< 0.1 µM	Cn1cnc2ncnc(NCc3ccc(B(O)O)cc3)c21 [compound 19, 4-[[(7-methylpurin-6-yl)amino]methyl]phenylboronic acid]
< 10 µM	OB(O)c1ccc(CNc2ncnc3nc[nH]c23)cc1 [compound 20, 4-[(7H-purin-6-ylamino)methyl]phenylboronic acid]
> 10 µM	CC(C)C(=O)Nc1csc2c(NCc3ccc(B(O)O)cc3)ncnc12 [compound 23, 4-([[7-(2-methylpropanamido)thieno[3,2-d]pyrimidin-4-yl]-amino]methyl)phenylboronic acid]
> 10 µM	O=C(Nc1csc2c(NCc3ccc(B(O)O)cc3)ncnc12)c1ccccc1 [compound 24, 4-[([7-benzamidothieno[3,2-d]pyrimidin-4-yl]amino)-methyl]phenylboronic acid]
< 0.1 µM	O=CNc1csc2c(NCc3ccc(B(O)O)cc3)ncnc12 [compound 25, 4-[([7-formamidothieno[3,2-d]pyrimidin-4-yl]amino)-methyl]phenylboronic acid]
< 0.1 µM	OB(O)c1ccc(CNc2ncnc3ccsc23)cc1 [compound 26, 4-([thieno[3,2-d]pyrimidin-4-ylamino]methyl)phenyl-boronic acid.]
< 1 µM	CC(C)c1nc(NCc2ccc(B(O)O)cc2)c2[nH]ncc2n1 [compound 27, 4-[([5-isopropyl-1H-pyrazolo[4,3-d]pyrimidin-7-yl]-amino)methyl]phenylboronic acid formic acid salt]
< 1 µM	OB(O)c1ccc(CNc2nc(-c3ccccc3)nc3cn[nH]c23)cc1 [compound 28, 4-[([5-phenyl-1H-pyrazolo[4,3-d]pyrimidin-7-yl]amino)-methyl]phenylboronic acid]
< 1 µM	Cn1ncc2nc(-c3ccccc3)nc(NCc3ccc(B(O)O)cc3)c21 [compound 29, 4-[([1-methyl-5-phenylpyrazolo[4,3-d]pyrimidin-7-yl]-amino)-methyl]phenylboronic acid]
< 0.1 µM	Cn1ncc2nc(-c3ccccn3)nc(NCc3ccc(B(O)O)cc3)c21 [compound 30, 4-([[1-methyl-5-(pyridin-2-yl)pyrazolo[4,3-d]pyrimidin-7-yl]amino]-methyl)phenylboronic acid]
< 1 µM	Cn1ncc2nc(-c3cccnc3)nc(NCc3ccc(B(O)O)cc3)c21 [compound 31, 4-([[1-methyl-5-(pyridin-3-yl)pyrazolo[4,3-d]pyrimidin-7-yl]amino]methyl)-phenylboronic acid]
< 0.1 µM	Cn1ncc2nc(-c3ccncc3)nc(NCc3ccc(B(O)O)cc3)c21 [compound 32, 4-([[1-methyl-5-(pyridin-4-yl)pyrazolo[4,3-d]pyrimidin-7-yl]amino]methyl)phenylboronic acid]
